According to ChEMBL document CHEMBL1201862, “PubChem BioAssay data set” (2004):
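A five-concentration, 48-hour dose response in 96-well plates underlies each endpoint, interpolated linearly between surrounding concentrations. The concentration for 50% growth inhibition is given as GI50.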 Calls of active or inactive are those of the source. No stated cut-off is given here; in the data, active = GI50 up to about 1.1 µM and inactive = higher.

How the values were obtained:
Test in all cases: growth of human tumour cells (NCI), 48 h
[1] = tested on: HCT-116
[2] = tested on: RXF 393
[3] = tested on: A549
[4] = tested on: CCRF-CEM
[5] = tested on: SNB-75
[6] = tested on: RPMI-8226
[7] = tested on: CAKI-1
[8] = tested on: NCI-H522
[9] = tested on: UO-31
[10] = tested on: SN12C
[11] = tested on: KM12
[12] = tested on: MOLT-4
[13] = tested on: SNB-19
[14] = tested on: COLO 205
[15] = tested on: LOX IMVI
[16] = tested on: OVCAR-3
[17] = tested on: MCF7
[18] = tested on: OVCAR-4
[19] = tested on: SR
[20] = tested on: K562
[21] = tested on: EKVX
[22] = tested on: HCC 2998
[23] = tested on: Hs-578T
[24] = tested on: HOP-92
[25] = tested on: SK-MEL-5
[26] = tested on: A498
[27] = tested on: UACC-257
[28] = tested on: SF-295
[29] = tested on: U-251
[30] = tested on: DU-145
[31] = tested on: TK-10
[32] = tested on: HCT-15
[33] = tested on: SK-OV-3
[34] = tested on: UACC-62
[35] = tested on: SW-620
[36] = tested on: NCI/ADR-RES
[37] = tested on: SF-268
[38] = tested on: HL-60
[39] = tested on: ACHN
[40] = tested on: NCI-H226
[41] = tested on: HT-29
[42] = tested on: NCI-H460
[43] = tested on: SK-MEL-28
[44] = tested on: 786-0
[45] = tested on: MDA-MB-435
[46] = tested on: T47D
[47] = tested on: HOP-62
[48] = tested on: MDA-MB-231
[49] = tested on: M14
[50] = tested on: SF-539
[51] = tested on: OVCAR-5
[52] = tested on: IGROV-1
[53] = tested on: NCI-H23
[54] = tested on: SK-MEL-2
[55] = tested on: PC-3
[56] = tested on: Malme-3M
[57] = tested on: OVCAR-8
[58] = tested on: MDA-N
[59] = tested on: BT-549

Measured: GI50

CN(NC1=NCCO1)c1ccc2ccccc2c1
49.4 µM: [32]
inactive: [1] 35 µM | [2] 38.6 µM | [3] 60.3 µM | [4] 17.2 µM | [5] 17.5 µM | [6] 76.7 µM | [7] 32.9 µM | [8] 29.9 µM | [9] 69.5 µM | [10] 62.8 µM | [11] 63.1 µM | [12] 42.2 µM | [13] 54.7 µM | [14] 41.1 µM | [15] 37.4 µM | [16] 23.6 µM | [17] 48.6 µM | [18] 42 µM | [19] 39.6 µM | [20] 28.3 µM | [21] 39.5 µM | [22] 38.8 µM | [23] 35.2 µM | [24] 13.6 µM | [25] 29.2 µM | [26] 44.3 µM | [27] 65 µM | [28] > 100 µM | [29] 59.7 µM | [30] > 100 µM | [31] > 100 µM | [33] 39.1 µM | [34] 49.1 µM | [35] 34.1 µM | [36] 33.2 µM | [37] 47.5 µM | [38] 26.9 µM | [39] 62.8 µM | [40] 34.1 µM | [41] 41.1 µM | [42] 27.2 µM | [43] 70.3 µM | [44] 54.6 µM | [45] 34.5 µM | [46] 62.5 µM | [47] 80.7 µM | [48] 26.3 µM | [49] 36 µM | [50] 23.6 µM | [51] 80 µM | [52] 39.7 µM | [53] 32.1 µM | [54] 27.8 µM | [55] 40.3 µM | [56] 36.2 µM | [57] 47.3 µM

COc1nc(C(Cl)(Cl)Cl)c(Cl)c(O)c1Cl
> 100 µM: [32]
inactive: [1] > 100 µM | [3] > 100 µM | [4] > 100 µM | [6] > 100 µM | [7] 30.5 µM | [8] 49.3 µM | [9] > 100 µM | [10] > 100 µM | [11] > 100 µM | [12] > 100 µM | [13] > 100 µM | [14] > 100 µM | [15] > 100 µM | [16] > 100 µM | [17] > 100 µM | [18] > 100 µM | [19] > 100 µM | [20] > 100 µM | [21] > 100 µM | [22] > 100 µM | [24] > 100 µM | [25] > 100 µM | [26] > 100 µM | [27] > 100 µM | [28] > 100 µM | [29] > 100 µM | [30] > 100 µM | [31] > 100 µM | [58] > 100 µM | [33] > 100 µM | [34] > 100 µM | [59] > 100 µM | [35] > 100 µM | [36] > 100 µM | [38] > 100 µM | [39] > 100 µM | [40] > 100 µM | [41] > 100 µM | [42] > 100 µM | [43] > 100 µM | [44] > 100 µM | [45] > 100 µM | [46] > 100 µM | [47] > 100 µM | [48] > 100 µM | [50] > 100 µM | [51] > 100 µM | [52] > 100 µM | [53] > 100 µM | [54] > 100 µM | [55] > 100 µM | [56] > 100 µM | [57] > 100 µM
